Test results as given in patent US4281136A, “2-Alkyl-3-haloisothiazolium salts and their derivatives” (Givaudan Corporation, priority 1978, dated 1981).
Values after ≈ are worked out from the molar mass of the structure shown. Read-outs that look alike come from different tables or passages of the source.

Experiments:
[1] = test system: Ps. aeruginosa; assay: preservative for cutting oil emulsions; format: cell-based; conditions: for MIC: Pseudomonas aeruginosa; for Minimum Inhibitory Concentration: listed as CH3, Cl, Cl
Experimental: Various aliquots of a 6% solution of the chemical in ethanol were added to cutting oil emulsions prepared by diluting Kutwell 30 cutting oil concentrate 1 to 30 with water. These samples were inoculated with a culture of Ps. aeruginosa and incubated at 28° on a rotary shaker. At weekly intervals the samples were examined for microorganisms and then reinoculated and incubated.

[2] = test system: Aureobasidium pullulans; assay: preservative for latex paints; format: cell-based; conditions: for zone of inhibition at 0.25 % / zone of inhibition at 0.5 %: Aureobasidium pullulans, 504 h; for Surface (growth on the surface of painted square): none, medium or heavy; for Zone (zone of inhibition): listed as CH3, Cl, Cl, O3SOMe
Experimental: Various quantities of the chemical were incorporated into a white exterior vinyl acetate paint. Whatman #30 filter paper was painted with one coat of paint on each side. One inch squares were cut and placed in Petri dishes on a malt agar.
The surface of both the agar and the painted squares were inoculated with a spore suspension of Aureobasidium pullulans. The plates were examined for zones of inhibition and surface growth after three weeks incubation in a humidity chamber at 27°-28°.
Various quantities of 4,5-dichloro-2-methyl-4-isothiazolin-3-thione were incorporated into a white exterior vinyl acetate paint and tested as described in Example IV.

[3] = test system: P. piscarium; assay: slimicide for pulp and paper mill water systems, P. piscarium; format: cell-based
Experimental: (§1) Various quantities of a 6% solution of this compound in dimethylformamide were incorporated into 24 ml of a test substrate composed as follows:
(§2) 8.4 g Whatman No. 2 cellulose
(§3) 1.0 g Nutrient Broth, Difco
(§4) 10.0 ml Mersize Rm 70R (Monsanto)
(§5) The samples were inoculated with four different organisms and incubated at 28° C. At weekly intervals the samples were examined for the presence of microbial growth and reinoculated during a total incubation period of four weeks.
(§6) The test of Example V was used to determine the effectiveness of 4,5-dichloro-3-dicyanomethylene-2-methyl-4-isothiazoline as a slimicide.

[4] = test system: E. aerogenes; assay: slimicide for pulp and paper mill water systems, E. aerogenes; format: cell-based; conditions: for MIC: Klebsiella aerogenes
Experimental: as §1, §2, §3, §4, §5, §6

[5] = test system: P. aeruginosa; assay: slimicide for pulp and paper mill water systems, P. aeruginosa; format: cell-based; conditions: for MIC: Pseudomonas aeruginosa, read-out: Minimum inhibitory concentration
Experimental: as §1, §2, §3, §4, §5, §6

[6] = test system: A. niger; assay: slimicide for pulp and paper mill water systems, A. niger; format: cell-based; conditions: for MIC: Aspergillus niger, read-out: Minimum inhibitory concentration
Experimental: as §1, §2, §3, §4, §5, §6

[7] = test system: four different organisms; assay: slimicide for pulp and paper mill water systems, overall; format: cell-based, P. aeruginosa, E. aerogenes, A. niger, P. Piscarium; conditions: four weeks, 28° C.
Experimental: as §1, §2, §3, §4, §5

[8] = 168 h, read-out: Minimum Inhibitory Concentration, cutting oil emulsion, incubation 1 week, 28°
[9] = 336 h, read-out: Minimum Inhibitory Concentration, cutting oil emulsion, incubation 2 weeks, 28°
[10] = read-out: Zone (zone of inhibition), Conc. 0.25% in vinyl acetate paint, three weeks, 27°-28°
[11] = read-out: Zone (zone of inhibition), Conc. 0.5% in vinyl acetate paint, three weeks, 27°-28°
[12] = Conc. 0.25% in vinyl acetate paint, three weeks, 27°-28°
[13] = Conc. 0.5% in vinyl acetate paint, three weeks, 27°-28°
[14] = read-out: Minimum inhibitory concentration, P. Piscarium, week 1, 28° C.
[15] = read-out: Minimum inhibitory concentration, P. Piscarium, week 2, 28° C.
[16] = read-out: Minimum inhibitory concentration, P. Piscarium, week 3, 28° C.
[17] = read-out: Minimum inhibitory concentration, P. Piscarium, week 4, 28° C.
[18] = read-out: Minimum inhibitory concentration, E. aerogenes, week 1, 28° C.
[19] = read-out: Minimum inhibitory concentration, E. aerogenes, week 2, 28° C.
[20] = read-out: Minimum inhibitory concentration, E. aerogenes, week 3, 28° C.
[21] = read-out: Minimum inhibitory concentration, E. aerogenes, week 4, 28° C.
[22] = 168 h, cutting oil emulsion, incubation 1 week, 28°, read-out: Minimum Inhibitory Concentration
[23] = 336 h, cutting oil emulsion, incubation 2 weeks, 28°, read-out: Minimum Inhibitory Concentration
[24] = 504 h, cutting oil emulsion, incubation 3 weeks, 28°, read-out: Minimum Inhibitory Concentration
[25] = 672 h, cutting oil emulsion, incubation 4 weeks, 28°, read-out: Minimum Inhibitory Concentration

SMILES	MIC [1, 8]	MIC [1, 9]	zone of inhibition at 0.25 % [2, 10]	zone of inhibition at 0.5 % [2, 11]	Surface (growth on the surface of painted square) [2, 12]	Surface (growth on the surface of painted square) [2, 13]	MIC [3, 14]	MIC [3, 15]	MIC [3, 16]	MIC [3, 17]	MIC [4, 18]	MIC [4, 19]	MIC [4, 20]	MIC [4, 21]	Minimum Inhibitory Concentration ([5]; P. aeruginosa, week 2, 28° C.)	Minimum Inhibitory Concentration ([5]; P. aeruginosa, week 3, 28° C.)	Minimum Inhibitory Concentration ([5]; P. aeruginosa, week 4, 28° C.)	MIC [5]	Minimum Inhibitory Concentration ([6]; A. niger, week 2, 28° C.)	Minimum Inhibitory Concentration ([6]; A. niger, week 3, 28° C.)	also measured
Cn1sc(Cl)c(Cl)c1=S [No. 1 (Table VIII), 4,5-Dichloro-2-methyl-4-isothiazolin-3-thione]	< 16 µg/mL	62 µg/mL (≈ 310 µM)	20 mm	20 mm	no growth	no growth	< 8 µg/mL	< 8 µg/mL	< 8 µg/mL	16 µg/mL (≈ 80 µM)	< 8 µg/mL	< 8 µg/mL	16 µg/mL (≈ 80 µM)	16 µg/mL (≈ 80 µM)	16 µg/mL	16 µg/mL	16 µg/mL	16 µg/mL (≈ 80 µM)	< 8 µg/mL	< 8 µg/mL	MIC ([1]; 504 h, read-out: Minimum Inhibitory Concentration, cutting oil emulsion, incubation 3 weeks, 28°): 62 µg/mL (≈ 310 µM); MIC ([1]; 672 h, read-out: Minimum Inhibitory Concentration, cutting oil emulsion, incubation 4 weeks, 28°): 62 µg/mL (≈ 310 µM); Minimum Inhibitory Concentration ([6]; A. niger, week 4, 28° C.): < 8 µg/mL; MIC [6]: < 8 µg/mL
C[n+]1sc(Cl)c(Cl)c1Cl [No. 2 (Table I), 2-Methyl-3,4,5-trichloroisothiazolium methylsulfate]					None	None	3.9 µg/mL	3.9 µg/mL	3.9 µg/mL	3.9 µg/mL	3.9 µg/mL	3.9 µg/mL	3.9 µg/mL	3.9 µg/mL	7.8 µg/mL	7.8 µg/mL	7.8 µg/mL	7.8 µg/mL	3.9 µg/mL	3.9 µg/mL	Minimum Inhibitory Concentration ([1]; cutting oil emulsion, incubation 1 week, 28°, O3SOMe): < 2 µg/mL; Minimum Inhibitory Concentration ([1]; cutting oil emulsion, incubation 2 weeks, 28°, O3SOMe): < 2 µg/mL; Minimum Inhibitory Concentration ([1]; cutting oil emulsion, incubation 3 weeks, 28°, O3SOMe): < 16 µg/mL; Minimum Inhibitory Concentration ([1]; cutting oil emulsion, incubation 4 weeks, 28°, O3SOMe): < 16 µg/mL; concentration effective as a slimicide [7]: < 0.01%; Zone (zone of inhibition) [2, 12]: 0 mm; Zone (zone of inhibition) [2, 13]: > 20 mm; Minimum Inhibitory Concentration ([6]; A. niger, week 4, 28° C.): 3.9 µg/mL; MIC [6]: 3.9 µg/mL
C[n+]1scc(Cl)c1Cl [No. 22 (Table I), 3,4-Dichloro-2-methylisothiazolium fluorosulfonate]	32 µg/mL	32 µg/mL	0 mm	0 mm																	Minimum Inhibitory Concentration ([1]; cutting oil emulsion, incubation 3 weeks, 28°, H, O3SF): 125 µg/mL; Minimum Inhibitory Concentration ([1]; cutting oil emulsion, incubation 4 weeks, 28°, H, O3SF): 250 µg/mL
C[n+]1sc(Cl)c(C#N)c1Cl [No. 26 (Table I), 4-Cyano-3,5-dichloro-2-methylisothiazolium fluorosulfonate]																					MIC [1, 22]: < 16 µg/mL; MIC [1, 23]: 125 µg/mL; MIC [1, 24]: 250 µg/mL; MIC [1, 25]: 250 µg/mL; zone of inhibition at 0.25 % ([2]; Conc. 0.25% in vinyl acetate paint, three weeks, 27°-28°, read-out: Zone (zone of inhibition)): 0 mm; zone of inhibition at 0.5 % ([2]; Conc. 0.5% in vinyl acetate paint, three weeks, 27°-28°, read-out: Zone (zone of inhibition)): 0 mm
CN1SC(Cl)=C(Cl)C1=C(C#N)C#N [drawing 12 CH3, Cl, Cl, 4,5-dichloro-3-dicyanomethylene-2-methyl-4-isothiazoline]															250 µg/mL	250 µg/mL	250 µg/mL				MIC [1, 22]: 125 µg/mL (≈ 539 µM); MIC [1, 23]: 125 µg/mL (≈ 539 µM); MIC [1, 24]: 250 µg/mL (≈ 1080 µM); MIC [1, 25]: 250 µg/mL (≈ 1080 µM); MIC ([3]; P. Piscarium, week 1, 28° C., read-out: Minimum inhibitory concentration): 250 µg/mL (≈ 1080 µM); MIC ([3]; P. Piscarium, week 2, 28° C., read-out: Minimum inhibitory concentration): 250 µg/mL (≈ 1080 µM); MIC ([3]; P. Piscarium, week 3, 28° C., read-out: Minimum inhibitory concentration): 250 µg/mL (≈ 1080 µM); MIC ([3]; P. Piscarium, week 4, 28° C., read-out: Minimum inhibitory concentration): 500 µg/mL (≈ 2150 µM); Minimum Inhibitory Concentration ([4]; E. aerogenes, week 2, 28° C.): 250 µg/mL; Minimum Inhibitory Concentration ([4]; E. aerogenes, week 3, 28° C.): 250 µg/mL; Minimum Inhibitory Concentration ([4]; E. aerogenes, week 4, 28° C.): 250 µg/mL; MIC ([4]; E. aerogenes, week 1, 28° C., read-out: Minimum inhibitory concentration): 250 µg/mL (≈ 1080 µM); MIC ([5]; P. aeruginosa, week 1, 28° C.): 250 µg/mL (≈ 1080 µM); MIC ([6]; A. niger, week 1, 28° C.): 250 µg/mL (≈ 1080 µM); MIC ([6]; A. niger, week 2, 28° C.): 500 µg/mL (≈ 2150 µM); MIC ([6]; A. niger, week 3, 28° C.): 500 µg/mL (≈ 2150 µM); MIC ([6]; A. niger, week 4, 28° C.): 500 µg/mL (≈ 2150 µM)
